# From article PMC8948406 (Journal for Immunotherapy of Cancer, 2022)
# Where two headings read alike, the source gives them in different places.
# How the values were obtained:
# non-squamous NSCLC = conditions: combination with chemotherapy; cited from earlier work
# [1] = for Cmax, Clast and tmax versus other part and niraparib monotherapy: first dose
# advanced solid tumors = conditions: cited from earlier work
# [2] = Dostarlimab serum pharmacokinetics; type: in vivo, human; conditions: coadministration of niraparib, carboplatin–paclitaxel, or bevacizumab
# [3] = target: PD-1 receptors on CD3+ T-cells (Homo sapiens, UniProt Q15116); assay: PD-1 receptor occupancy by flow cytometry; type: cell-based; conditions: by end of treatment; parts A, B and D
# Chain of PD-1 receptors on CD3+ T-cells (Q15116 25-288): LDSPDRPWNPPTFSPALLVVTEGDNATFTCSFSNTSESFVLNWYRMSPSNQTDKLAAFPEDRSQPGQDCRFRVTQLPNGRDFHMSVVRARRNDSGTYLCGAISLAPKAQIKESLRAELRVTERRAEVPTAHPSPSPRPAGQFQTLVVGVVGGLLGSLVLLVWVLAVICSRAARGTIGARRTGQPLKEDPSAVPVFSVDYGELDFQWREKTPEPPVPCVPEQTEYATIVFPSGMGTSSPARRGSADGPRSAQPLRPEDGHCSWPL
molecule,measurement,setting,value
"pembrolizumab: anti-PD-1 antibody, given with chemotherapy in the cited trials",Grade ≥3 neutropenia,non-squamous NSCLC,15.8%
"NC(=O)c1cccc2cn(-c3ccc([C@@H]4CCCNC4)cc3)nc12 [niraparib, [3S]-3-[4-[7-(aminocarbonyl)-2H-indazol-2-yl]phenyl] piperidine]",Cmax lower in part C than in part A,[1]; 200 mg,47.1%
same,Exposures (Cmax and AUClast) versus monotherapy,"[1]; 200 mg, part A",comparable to monotherapy
same,AUClast higher in part C than in part A,[1]; 300 mg QD,approximately 46%
same,AUClast lower than niraparib monotherapy,"[1]; 300 mg, part A",9.6%
same,AUClast higher than niraparib monotherapy,"[1]; 300 mg, part C",31.6%
same,"Cmax, Clast and tmax versus other part and niraparib monotherapy",[1]; 300 mg,consistent across both parts and similar to PK data for niraparib monotherapy
same,"Cmax, Clast and tmax versus other part and niraparib monotherapy","[1]; 300 mg, listed as Niraparib",consistent in parts A and C
same,Variability of niraparib exposure,[1]; regardless of dose and cohort,~ 50%
same,"Variability of exposure, monotherapy data",advanced solid tumors,up to 66%
dostarlimab: PD-1 inhibitor; IgG4 humanized monoclonal antibody that binds with high affinity to PD-1,Effect of the combination partners on dostarlimab PK,[2],no observed impact
same,Overall mean PD-1 receptor occupancy,[3],99.0%
